Results: ChEMBL document CHEMBL1201862, “PubChem BioAssay data set” (2004)
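Following 48 hours of exposure in 96-well plates, responses at five concentrations were used to interpolate endpoints linearly. GI50 = concentration required for 50% inhibition of growth.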 Calls of active or inactive are those of the source. Rule as the data show it: active = GI50 up to about 1.1 µM and inactive = higher.

Key:
Test in all cases: inhibition of tumour cell growth, NCI panel, 48 h
786-0 = system: 786-0
A498 = system: A498
A549 = system: A549
ACHN = system: ACHN
BT-549 = system: BT-549
CCRF-CEM = system: CCRF-CEM
COLO 205 = system: COLO 205
DU-145 = system: DU-145
EKVX = system: EKVX
HCC 2998 = system: HCC 2998
HCT-116 = system: HCT-116
HCT-15 = system: HCT-15
HL-60 = system: HL-60
HOP-62 = system: HOP-62
HOP-92 = system: HOP-92
HT-29 = system: HT-29
Hs-578T = system: Hs-578T
IGROV-1 = system: IGROV-1
K562 = system: K562
KM12 = system: KM12
M14 = system: M14
MCF7 = system: MCF7
MDA-MB-435 = system: MDA-MB-435
MDA-N = system: MDA-N
MOLT-4 = system: MOLT-4
Malme-3M = system: Malme-3M
NCI-H226 = system: NCI-H226
NCI-H23 = system: NCI-H23
NCI-H460 = system: NCI-H460
NCI/ADR-RES = system: NCI/ADR-RES
OVCAR-3 = system: OVCAR-3
OVCAR-5 = system: OVCAR-5
OVCAR-8 = system: OVCAR-8
PC-3 = system: PC-3
RPMI-8226 = system: RPMI-8226
RXF 393 = system: RXF 393
SF-268 = system: SF-268
SF-295 = system: SF-295
SF-539 = system: SF-539
SK-MEL-28 = system: SK-MEL-28
SK-MEL-5 = system: SK-MEL-5
SK-OV-3 = system: SK-OV-3
SN12C = system: SN12C
SNB-19 = system: SNB-19
SNB-75 = system: SNB-75
SR = system: SR
SW-620 = system: SW-620
T47D = system: T47D
TK-10 = system: TK-10
U-251 = system: U-251
UACC-257 = system: UACC-257
UACC-62 = system: UACC-62
UO-31 = system: UO-31
CAKI-1 = system: CAKI-1
LOX IMVI = system: LOX IMVI
MDA-MB-231 = system: MDA-MB-231
NCI-H522 = system: NCI-H522
OVCAR-4 = system: OVCAR-4
SK-MEL-2 = system: SK-MEL-2

In the case of COc1cc(COC(=O)N2CCCCC2C(=O)O)c([N+](=O)[O-])cc1OC (stereo unspecified), the GI50 (786-0) is reported as > 100 µM (inactive), the GI50 (A498) is reported as > 100 µM (inactive) and the GI50 (A549) is reported as > 100 µM (inactive). The GI50 (ACHN) was > 100 µM (inactive), the GI50 (BT-549) was > 100 µM (inactive) and the GI50 (CCRF-CEM) was > 100 µM (inactive). For the same molecule, the GI50 (COLO 205) was > 100 µM (inactive), the GI50 (DU-145) was > 100 µM (inactive) and the GI50 (EKVX) was > 100 µM (inactive). The GI50 (HCC 2998) was > 100 µM (inactive), the GI50 (HCT-116) was > 100 µM (inactive) and the GI50 (HCT-15) was greater than 100 µM. The GI50 (HL-60) was > 100 µM (inactive), the GI50 (HOP-62) was > 100 µM (inactive) and the GI50 (HOP-92) was > 100 µM (inactive). For the same molecule, the GI50 (HT-29) was > 100 µM (inactive), the GI50 (Hs-578T) was > 100 µM (inactive) and the GI50 (IGROV-1) was > 100 µM (inactive). The GI50 (K562) was > 100 µM (inactive), the GI50 (KM12) was > 100 µM (inactive) and the GI50 (M14) was > 100 µM (inactive). The GI50 (MCF7) was > 100 µM (inactive), the GI50 (MDA-MB-435) was > 100 µM (inactive) and the GI50 (MDA-N) was > 100 µM (inactive). For the same molecule, the GI50 (MOLT-4) was > 100 µM (inactive), the GI50 (Malme-3M) was > 100 µM (inactive) and the GI50 (NCI-H226) was > 100 µM (inactive). For the same molecule, the GI50 (NCI-H23) was > 100 µM (inactive), the GI50 (NCI-H460) was > 100 µM (inactive) and the GI50 (NCI/ADR-RES) was > 100 µM (inactive). For the same molecule, the GI50 (OVCAR-3) was > 100 µM (inactive), the GI50 (OVCAR-5) was > 100 µM (inactive) and the GI50 (OVCAR-8) was > 100 µM (inactive). The GI50 (PC-3) was > 100 µM (inactive), the GI50 (RPMI-8226) was > 100 µM (inactive) and the GI50 (RXF 393) was > 100 µM (inactive). The GI50 (SF-268) was > 100 µM (inactive), the GI50 (SF-295) was > 100 µM (inactive) and the GI50 (SF-539) was > 100 µM (inactive). The GI50 (SK-MEL-28) was > 100 µM (inactive), the GI50 (SK-MEL-5) was > 100 µM (inactive) and the GI50 (SK-OV-3) was > 100 µM (inactive). The GI50 (SN12C) was > 100 µM (inactive), the GI50 (SNB-19) was > 100 µM (inactive) and the GI50 (SNB-75) was > 100 µM (inactive). The GI50 (SR) was > 100 µM (inactive), the GI50 (SW-620) was > 100 µM (inactive) and the GI50 (T47D) was > 100 µM (inactive). For the same molecule, the GI50 (TK-10) was > 100 µM (inactive), the GI50 (U-251) was > 100 µM (inactive) and the GI50 (UACC-257) was > 100 µM (inactive). For the same molecule, the GI50 (UACC-62) was > 100 µM (inactive) and the GI50 (UO-31) was > 100 µM (inactive).
In the case of c1ccc2c(c1)Sc1ccccc1N2CC1CN2CCC1CC2 (stereo unspecified) [MEQUITAZINE], the GI50 (786-0) is reported as 6.24 µM (inactive), the GI50 (A498) is reported as 11.7 µM (inactive) and the GI50 (A549) is reported as 9.71 µM (inactive). The GI50 (ACHN) was 10.3 µM (inactive), the GI50 (BT-549) was 14.5 µM (inactive) and the GI50 (CAKI-1) was 8.26 µM (inactive). For the same molecule, the GI50 (CCRF-CEM) was 3.28 µM (inactive), the GI50 (COLO 205) was 1.69 µM (inactive) and the GI50 (DU-145) was 6.73 µM (inactive). For the same molecule, the GI50 (EKVX) was 11.4 µM (inactive), the GI50 (HCC 2998) was 1.29 µM (inactive) and the GI50 (HCT-116) was 3.52 µM (inactive). For the same molecule, the GI50 (HCT-15) was 7.18 µM, the GI50 (HL-60) was 3.57 µM (inactive) and the GI50 (HOP-62) was 13.4 µM (inactive). The GI50 (HOP-92) was 11 µM (inactive), the GI50 (HT-29) was 3.01 µM (inactive) and the GI50 (Hs-578T) was 8.2 µM (inactive). The GI50 (IGROV-1) was 11.2 µM (inactive), the GI50 (K562) was 2.11 µM (inactive) and the GI50 (KM12) was 5.08 µM (inactive). For the same molecule, the GI50 (LOX IMVI) was 3.08 µM (inactive), the GI50 (M14) was 1.87 µM (inactive) and the GI50 (MCF7) was 3.4 µM (inactive). The GI50 (MDA-MB-231) was 3.8 µM (inactive), the GI50 (MDA-MB-435) was 2.8 µM (inactive) and the GI50 (MOLT-4) was 3.42 µM (inactive). For the same molecule, the GI50 (Malme-3M) was 1.94 µM (inactive), the GI50 (NCI-H226) was 14.5 µM (inactive) and the GI50 (NCI-H23) was 13 µM (inactive). For the same molecule, the GI50 (NCI-H460) was 3.26 µM (inactive), the GI50 (NCI-H522) was 4.82 µM (inactive) and the GI50 (NCI/ADR-RES) was 11.1 µM (inactive). For the same molecule, the GI50 (OVCAR-3) was 3.97 µM (inactive), the GI50 (OVCAR-4) was 6.5 µM (inactive) and the GI50 (OVCAR-5) was 11.7 µM (inactive). The GI50 (OVCAR-8) was 13.4 µM (inactive), the GI50 (PC-3) was 5.35 µM (inactive) and the GI50 (RPMI-8226) was 2.99 µM (inactive). The GI50 (RXF 393) was 2.31 µM (inactive), the GI50 (SF-268) was 7.36 µM (inactive) and the GI50 (SF-295) was 15.7 µM (inactive). The GI50 (SF-539) was 8.32 µM (inactive), the GI50 (SK-MEL-28) was 2 µM (inactive) and the GI50 (SK-MEL-2) was 3.32 µM (inactive). The GI50 (SK-MEL-5) was 3.2 µM (inactive), the GI50 (SK-OV-3) was 12.5 µM (inactive) and the GI50 (SN12C) was 11.3 µM (inactive). The GI50 (SNB-19) was 9.23 µM (inactive), the GI50 (SNB-75) was 1.75 µM (inactive) and the GI50 (SR) was 2.58 µM (inactive). For the same molecule, the GI50 (SW-620) was 3.58 µM (inactive), the GI50 (T47D) was 2.63 µM (inactive) and the GI50 (TK-10) was 6.41 µM (inactive). The GI50 (U-251) was 4.24 µM (inactive), the GI50 (UACC-257) was 1.88 µM (inactive) and the GI50 (UACC-62) was 3.13 µM (inactive). For the same molecule, the GI50 (UO-31) was 7.06 µM (inactive).
